The record followed here is ChEMBL document CHEMBL3217476, “Binding region and interaction properties of sulfoquinovosylacylglycerol (SQAG) with human vascular endothelial growth factor 165 revealed by biosensor-based assays” (Medchemcomm, 2011).

The Kd is a measure of binding affinity in units of concentration.

Calls of active or inactive are those of the source. No cut-off for these calls is given here.

The target of assay [1] is T1, Vascular endothelial growth factor A, long form (Homo sapiens) (UniProt P15692).
T1 sequence (whole entry): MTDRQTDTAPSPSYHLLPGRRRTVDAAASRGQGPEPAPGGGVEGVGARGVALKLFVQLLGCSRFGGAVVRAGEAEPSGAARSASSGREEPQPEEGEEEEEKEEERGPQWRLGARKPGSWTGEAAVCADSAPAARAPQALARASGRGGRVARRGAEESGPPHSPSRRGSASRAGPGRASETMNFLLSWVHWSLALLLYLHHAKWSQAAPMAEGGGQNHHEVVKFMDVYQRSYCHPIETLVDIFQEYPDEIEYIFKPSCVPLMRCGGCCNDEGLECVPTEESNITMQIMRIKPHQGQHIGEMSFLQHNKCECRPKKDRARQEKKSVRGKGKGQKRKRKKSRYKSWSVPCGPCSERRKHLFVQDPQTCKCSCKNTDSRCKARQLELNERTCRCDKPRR
Description: Binding affinity to His-tagged human recombinant full length VEGF165 (amino acid residues A1 to R165) expressed in Escherichia coli BL21 (DE3) cells at 0.125 to 2 uM by surface plasmon resonance assay. A general note: SPR reads the build-up and loss of mass on a sensor chip optically.

Assay [2] concerns the target T2, Vascular endothelial growth factor A, long form (Homo sapiens, UniProt P15692).
T2 sequence (P15692 whole entry): T1 sequence (whole entry)
The assay can be described thus: Binding affinity to His-tagged human recombinant full length VEGF165 (amino acid residues A1 to R165) expressed in Escherichia coli BL21 (DE3) cells by surface plasmon resonance assay.

The target of assay [3] is Vascular endothelial growth factor receptor 2 (Homo sapiens) (UniProt P35968). Description: Binding affinity to human VEGFR2 (amino acid residues A20 to E764) at 0.125 to 2 uM by surface plasmon resonance assay.
In assay [4] the target is Vascular endothelial growth factor A, long form (Homo sapiens, UniProt P15692, EX2DEL). Description: Binding affinity to His-tagged human recombinant truncated del2 VEGF165 (amino acid residues A111 to R165) expressed in Escherichia coli BL21 (DE3) cells by surface plasmon resonance assay.
For assay [5], the target named is Angiopoietin-1 (Homo sapiens) (UniProt Q15389). The assay can be described thus: Binding affinity to human Ang-1 (amino acid residues N21 to F496) at 0.125 to 2 uM by surface plasmon resonance assay.
Assay [6] has as its target Vascular endothelial growth factor A, long form (Homo sapiens, UniProt P15692, EX4DEL). Description: Binding affinity to His-tagged human recombinant truncated del4 VEGF165 (amino acid residues C137 to R165) expressed in Escherichia coli BL21 (DE3) cells by surface plasmon resonance assay.
The target of assay [7] is T1, Vascular endothelial growth factor A, long form (Homo sapiens). The assay can be described thus: Binding affinity to human VEGF165 C-terminal fragment of heparin binding domain (amino acid residues C137 to R165) expressed in T7 phage assessed as increase in emergence ratio of del4 T7 phage particles from host Escherichia coli BLT5615 cells by QCM sensorgram analysis. In kind it is cell-based.

The species entered for assay [8] is Homo sapiens. The assay can be described thus: Binding affinity to human FGFR2 alpha (amino acid residues R22 to E378) at 0.125 to 2 uM by surface plasmon resonance assay.
Assay [9] concerns the target Ephrin type-B receptor 4 (Homo sapiens) (UniProt P54760). Description: Binding affinity to human EphB4 (amino acid residues L16 to A539) at 0.125 to 2 uM by surface plasmon resonance assay.
Assay [10] concerns Vascular endothelial growth factor A, long form (Homo sapiens), P15692 [UNDEFINED MUTATION]. The assay can be described thus: Binding affinity to His-tagged human recombinant truncated del3 VEGF165 (amino acid residues A111 to T142) expressed in Escherichia coli BL21 (DE3) cells at 0.125 to 2 uM by surface plasmon resonance assay.
Assay [11] has as its target Fibroblast growth factor 2 (Homo sapiens) (UniProt P09038). The assay can be described thus: Binding affinity to human FGF2 (amino acid residues A1 to S154) at 0.125 to 2 uM by surface plasmon resonance assay.
The target of assay [12] is Fibroblast growth factor 1 (Homo sapiens) (UniProt P05230). Description: Binding affinity to human FGF1 (amino acid residues M1 to D141) at 0.125 to 2 uM by surface plasmon resonance assay.
The target of assay [13] is T1, Vascular endothelial growth factor A, long form (Homo sapiens). The assay can be described thus: Inhibition of human VEGF165 heparin binding domain (amino acid residues A111 to R165) expressed in T7 phage/NRP1 interaction assessed as rescued phage titer ratio of del2 T7 phage particles at 1 uM preincubated with del2 T7 phage particles by QCM sensorgram analysis.
For assay [14], the species on record is Homo sapiens. The assay can be described thus: Binding affinity to human PDGF-BB (amino acid residues S1 to T110) at 0.125 to 2 uM by surface plasmon resonance assay.
The target in assay [15] is Neuropilin-1 (Homo sapiens) (UniProt O14786). The assay can be described thus: Binding affinity to human NRP1 (amino acid residues M1 to K644) at 0.125 to 2 uM by surface plasmon resonance assay.
The target in assay [16] is Pro-epidermal growth factor (Homo sapiens) (UniProt P01133). Description: Binding affinity to human EGF (amino acid residues N1 to R53) at 0.125 to 2 uM by surface plasmon resonance assay.
The target of assay [17] is Ephrin type-B receptor 2 (Homo sapiens) (UniProt P29323). The assay can be described thus: Binding affinity to human EphB2 (amino acid residues V27 to K458) at 0.125 to 2 uM by surface plasmon resonance assay.
In assay [18] the target is Bone morphogenetic protein 2 (Homo sapiens) (UniProt P12643). The assay can be described thus: Binding affinity to human BMP-2 (amino acid residues M1 to R115) at 0.125 to 2 uM by surface plasmon resonance assay.
The target of assay [19] is T1, Vascular endothelial growth factor A, long form (Homo sapiens). The assay can be described thus: Binding affinity to human VEGF121 (amino acid residues A1 to R121) at 0.125 to 2 uM by surface plasmon resonance assay.
The target in assay [20] is Platelet-derived growth factor receptor beta (Mus musculus) (UniProt P05622). Description: Binding affinity to GST-fused mouse PDGFRB (amino acid residues L33 to E133) at 0.125 to 2 uM by surface plasmon resonance assay.
Assay [21] concerns the target Neurogenic locus notch homolog protein 1 (Homo sapiens) (UniProt P46531). Description: Binding affinity to human Notch-1 (amino acid residues A19 to Q526) at 0.125 to 2 uM by surface plasmon resonance assay.
The target of assay [22] is Transforming growth factor beta-2 proprotein (Homo sapiens) (UniProt P61812). The assay can be described thus: Binding affinity to human TGFbeta2 (amino acid residues A1 to S112) at 0.125 to 2 uM by surface plasmon resonance assay.
The target in assay [23] is Protein jagged-1 (Homo sapiens) (UniProt P78504). Description: Binding affinity to human Jagged-1 (amino acid residues S32 to S1046) at 0.125 to 2 uM by surface plasmon resonance assay.
In assay [24] the target is Insulin-like growth factor 1 (Homo sapiens) (UniProt P05019). The assay can be described thus: Binding affinity to human IGF-1 (amino acid residues G49 to A118) at 0.125 to 2 uM by surface plasmon resonance assay.
The target in assay [25] is T1, Vascular endothelial growth factor A, long form (Homo sapiens). The assay can be described thus: Binding affinity to human VEGF165 heparin binding domain (amino acid residues A111 to R165) expressed in T7 phage assessed as increase in emergence ratio of del2 T7 phage particles from host Escherichia coli BLT5615 cells by QCM sensorgram analysis. It is filed as cell-based.

In assay [26] the target is Vascular endothelial growth factor receptor 1 (Homo sapiens) (UniProt P17948). Description: Binding affinity to human VEGFR1 (amino acid residues S27 to I328) at 0.125 to 2 uM by surface plasmon resonance assay.
Assay [27] deals with Insulin-like growth factor 1 receptor (Homo sapiens) (UniProt P08069). Description: Binding affinity to human IGF-1 receptor (amino acid residues E31 to N932) at 0.125 to 2 uM by surface plasmon resonance assay.
Assay [28] concerns Vascular endothelial growth factor A, long form (Homo sapiens), P15692 [UNDEFINED MUTATION]. Description: Binding affinity to His-tagged human recombinant truncated del1 VEGF165 (amino acid residues A1 to R110) expressed in Escherichia coli BL21 (DE3) cells at 0.125 to 2 uM by surface plasmon resonance assay.
The target of assay [29] is Bone morphogenetic protein receptor type-2 (Homo sapiens) (UniProt Q13873). The assay can be described thus: Binding affinity to human BMPR2 (amino acid residues A26 to I151) at 0.125 to 2 uM by surface plasmon resonance assay.
In assay [30] the target is Angiopoietin-1 receptor (Homo sapiens) (UniProt Q02763). Description: Binding affinity to human Tie-2 (amino acid residues A23 to K745) at 0.125 to 2 uM by surface plasmon resonance assay.
The target of assay [31] is Epidermal growth factor receptor (Homo sapiens) (UniProt P00533). Description: Binding affinity to human EGFR (amino acid residues L25 to S645) at 0.125 to 2 uM by surface plasmon resonance assay.
For assay [32], the target named is DNA polymerase lambda (Homo sapiens) (UniProt Q9UGP5). The assay can be described thus: Binding affinity to human DNA polymerase lambda (amino acid residues M1 to R95) by surface plasmon resonance assay.
Assay [33] is filed under the species Homo sapiens. The assay can be described thus: Binding affinity to human sDLL-4 (amino acid residues S1 to P498) at 0.125 to 2 uM by surface plasmon resonance assay.
For assay [34], the target named is TGF-beta receptor type-2 (Homo sapiens) (UniProt P37173). Description: Binding affinity to human TGFbetaR2 (amino acid residues M1 to D159) at 0.125 to 2 uM by surface plasmon resonance assay.
Assay [35] addresses T1, Vascular endothelial growth factor A, long form (Homo sapiens). Description: Inhibition of human VEGF165 heparin binding domain (amino acid residues A111 to R165) expressed in T7 phage/NRP1 interaction assessed as rescued phage titer ratio of del2 T7 phage particles at 10 uM preincubated with del2 T7 phage particles by QCM sensorgram analysis.
Assay [36] shares this target. The assay can be described thus: Binding affinity to His-tagged human recombinant full length VEGF165 (amino acid residues A1 to R165) expressed in Escherichia coli BL21 (DE3) cells at 1.25 to 20 uM by surface plasmon resonance assay.

Take `CCCCCCCCCCCCCCCCCC(=O)OCC(CO[C@@H]1O[C@H](CO)[C@@H](O)[C@H](O)[C@H]1O)OC(=O)CCCCCCCCCCCCCCCCC` (stereo not given in full): the result in [1] was inactive.

`CCCCCCCCCCCCCCCCCC(=O)OCC(O)CO[C@@H]1O[C@H](CS(=O)(=O)O)[C@@H](O)[C@H](O)[C@H]1O` (stereo not given in full): the Kd in [2] stood at 16 µM.

`CCCCCCCCCCCCCCCCCC(=O)OCC(CO[C@@H]1O[C@H](CS(=O)(=O)O)[C@@H](O)[C@H](O)[C@H]1O)OC(=O)CCCCCCCCCCCCCCCCC` (stereo not given in full): the result (in assay [3]; in assay [5]; in the assay listed under Homo sapiens [8]; in [9]; in assay [10]; in assay [11]) was inactive. Further, the outcome (in assay [12]; in the assay listed under Homo sapiens [14]; in assay [15]; in assay [16]; in assay [17]; in assay [18]) was inactive. Further, the outcome in assay [19], in assay [20], in assay [21], in assay [22], in [23] and in [24] was inactive. Also, the result in [26], in [27], in assay [28], in [29], in assay [30] and in [31] was inactive. In addition, the outcome (in the assay filed under Homo sapiens [33]; in assay [34]) was inactive. Also, the Kd in assay [4] was 0.025 nM; in assay [6], 1400 nM; in assay [2] it was 4.6e-05 µM; in [32] it was 9.9 nM. For the same molecule, the result in assay [7] and in assay [25] was Active. Also, the inhibition entry in assay [13] is “Active”.

As for `CCCCCCCCCCCCCCCCCC(=O)OCC(CO[C@H]1O[C@H](CS(=O)(=O)O)[C@@H](O)[C@H](O)[C@H]1O)OC(=O)CCCCCCCCCCCCCCCCC` (stereo not given in full), the Kd in [2] worked out at 2.5e-05 µM.

Consider `CCCCCCCCCCCCCCCCCC(=O)OCC(O)CO[C@H]1O[C@H](CS(=O)(=O)O)[C@@H](O)[C@H](O)[C@H]1O` (stereo not given in full), for which, in [2], the Kd worked out at 18 µM. Moreover, the inhibition entry in assay [35] is “Active”.

For `O=S(=O)(O)C[C@H]1O[C@@H](OCC(O)CO)[C@H](O)[C@@H](O)[C@@H]1O` (stereo not given in full), in [1], the outcome was inactive.

Take `CCCCCCCCCC(=O)OCC(O)CO[C@H]1O[C@H](CS(=O)(=O)O)[C@@H](O)[C@H](O)[C@H]1O` (stereo not given in full): the result in [36] was inactive.
